From patent US20230416457A1, “DUAL MODALITY UPS […] TUMOR ACIDOSIS IMAGING” (The Board of Regents of The University of Texas System, priority 2018, published 2023)

Tests used:
macrophages = settings: cited from earlier work
[1] = system: LPS-induced tissue inflammation; parameters: species or system C57BL/6 immunocompetent mice; settings: mouse, in vivo
[2] = system: orthotopic HN5 head and neck tumors; settings: mouse, in vivo
Procedure: Female NOD-SCID mice (6-8 weeks) were purchased from UT Southwestern Medical Center Breeding Core. For orthotopic head and neck tumors, HN5 and FaDu (2×10^6 per mouse) were injected into the submental triangle area. One week after inoculation, animals with tumor size 20-100 mm^3 were used for imaging studies. Orthotopic murine 4T1 breast tumor model was established in BalB/C mice by injection of 4T1 (5×10^5 per mouse) cells into the mammary fat pads. GFP-transfected 73C murine glioblastoma tumor model was established by implanting 73C glioma cells intracranially in the left hemisphere of mice. Gliomas (2-4 mm in diameter) were formed within two weeks in mice.
For FDG experiments, mice were fasted for 12 h prior to PET imaging. Each mouse received 150 μCi of FDG in 150 μL of saline intravenously via tail vein injection. PET/CT images were acquired one hour post-injection for 15 mins. The mice were sedated on the imaging bed under 2% isoflurane for the duration of imaging. Immediately after the CT data acquisition that was performed at 80 kV and 500 μA with a focal spot of 58 μm, 15-min static PET scans were conducted. […] Reconstructed CT and PET images were fused and analyzed using Inveon Research Workplace (IRW) software. […] The target activity was quantitatively calculated as percentage injected dose per gram of tissue (% ID/g).

^18F-fluorodeoxyglucose [FDG]
increase of FDG uptake in macrophages by LPS stimulation (macrophages): 2.5 fold
anticipated PET signal in inflamed tissues [1]: strong signals
contrast over noise ratio (CNR), FDG-PET [2]: 1.7±0.6
